Measurements taken from patent publication US20080318954A1, “Compounds” (Cyclacel Limited, priority 2004, published 2008).

Assays:
[1] = tested on: glycogen synthase activity in HEK293 cells; assay: Glycogen synthase (GS) assay in HEK293 cells; assay type: cell-based, human; settings: HEK293 cells, 40 mM
Procedure: (§1) Cells on 10 cm dishes (Human Embryonic Kidney (HEK) 293 cells, L6 rat myocytes, or 3T3 mouse adipocytes) were treated with different concentrations of GSK3-inhibitors or DMSO vehicle for 90 min. Incubation medium was removed and cells were washed with ice-cold phosphate-buffered saline (PBS) prior to lysis on ice in 50 mM HEPES, pH 7.5, 10 mM EDTA, 100 mM NaF, 5 mM DTT, protease inhibitor cocktail (Sigma). After a freeze/thaw cycle the samples are sonicated for 10 sec and centrifuged at 15,000 g for 10 min at 4° C. Lysate supernatants were snap-frozen on liquid nitrogen and stored at −80° C. Lysates were assayed for glycogen synthase activity in buffer (50 mM Tris-HCl, pH 7.8, 20 mM EDTA, 25 mM NaF, 5 mM DTT, 1% glycogen, 0.3 mM UDP-glucose and 0.06 μCi of [^14C]-UDP-glucose in the presence of 0.1 or 10 mM glucose-6-phosphate. The reaction was carried out for 30 min at 30° C. 70 μL of the reaction mixture (total volume 90 μL) were transferred to a GFC 96-well filter plate (bottom sealed with foil), containing 140 μL 96% ethanol. The GFC plate was incubated for 1 h on ice and than washed with 66% ethanol. To each well 100 μL scintillant liquid was added and the radioactivity of the samples was measured using a scintillation counter (Topcount, HP). Data are expressed as -fold increase in glycogen synthase activity ratios over those of control samples.

[2] = tested on: glycogen synthase activity in 3T3 mouse adipocytes; assay: Glycogen synthase (GS) assay in 3T3 mouse adipocytes; assay type: cell-based; settings: 3T3 cells, 40 mM
Procedure: Mouse pre-adipocytes 3T3-F442A were seeded at 9×10^5 cells per 10 cm dish in DMEM 10% FCS, containing penicillin/streptomycin. When 90% confluent, the same medium was supplemented with 1 μg/mL insulin. After 3-5 days (when most cells were differentiated) insulin was removed and 4 days later the cells were ready to use.
as §1

[3] = tested on: β-catenin-LEF/TCF transcriptional activity in HEK293 cells; assay: β-Catenin-LEF/TCF regulated reporter gene assay; assay type: cell-based, human; settings: LiCl
Description: Furthermore, the effect of compound XIV on the β-catenin-dependent transcriptional activity, as measured in a luciferase based reporter gene assay, was studied.
HEK293 cells were transfected with either β-catenin-LEF/TCF-sensitive or β-catenin-LEF/TCF-insensitive reporter vector (Upstate Biotechnology, Inc.) using Lipofectamine Plus reagent (GibcoBRL) according to the manufacturer's instructions. The next day, cells were trypsinized, washed into serum-free medium, counted and seeded at 40,000 cells per well in a 96-well plate. Subsequent to cell attachment, LiCl or GSK-3 inhibitor compound were added to the medium to the required concentrations. Control cells were DMSO vehicle treated. 16 h after inhibitor addition, cells were analyzed for luciferase activity using the Steady-Glo Luciferase assay system (Promega) according to the manufacturer's instructions.

[Cl-].[Li+] [LiCl, reference compound]
Fold induction of GS activity [1]: 3.7 fold | Fold induction of GS activity [2]: 2 fold | β-catenin-dependent luciferase activity [3]: massive induction
